Laboratory results as given in US11059832B2, “HPK1 inhibitors and methods of using same” (University Health Network, priority 2015, dated 2021).

Legend:
human HPK1 (MAP4K1) = target: T1, human HPK1 (MAP4K1) (Homo sapiens, UniProt Q92918); assay: HPK1 inhibition assay (indirect ELISA); assay type: biochemical; conditions: GST-HPK1 0.6 nM, 12 μM ATP; read-out: IC50 Range HPK1
T1 construct: human HPK1 (aa 1-346); purchased Invitrogen PV6355
T1 sequence (Q92918 1-346): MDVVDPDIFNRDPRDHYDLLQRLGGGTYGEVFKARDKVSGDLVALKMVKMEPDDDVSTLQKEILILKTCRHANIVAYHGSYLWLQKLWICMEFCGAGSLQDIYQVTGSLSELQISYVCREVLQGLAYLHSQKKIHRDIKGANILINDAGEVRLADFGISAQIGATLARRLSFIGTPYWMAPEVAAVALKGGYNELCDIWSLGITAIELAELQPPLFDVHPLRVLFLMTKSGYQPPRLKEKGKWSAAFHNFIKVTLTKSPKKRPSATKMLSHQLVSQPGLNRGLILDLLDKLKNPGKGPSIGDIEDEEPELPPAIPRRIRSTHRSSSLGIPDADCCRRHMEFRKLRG
Outline: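 GST-tagged human HPK1 (aa 1-346, 0.6 nM) phosphorylated MBP-coated wells with 12 μM ATP in MOPS pH 7.2/Mg2+ buffer for 30 min after 15-min compound preincubation; phospho-Thr detected by antibody ELISA with TMB, 450 nm. Tested at 10 μM or 10-point titration (typically 50-0.1 μM); IC50 by 4-parameter logistic fit.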

LCK = target: T2, LCK (Homo sapiens, UniProt P06239); assay: LCK inhibition, FRET based Z'-LYTE Kinase Assay; assay type: biochemical; conditions: 25 nM LCK, 180 μM ATP; read-out: IC50 Range Lck
T2 construct: purchased Invitrogen P3043
Protocol: (§1) FLT3 and LCK compound inhibition were determined using FRET based Z′-LYTE Kinase Assay Kit with Tyrosine 2 peptide as the substrate (Invitrogen cat #PV3191). […] The % inhibition values were determined according to the manufacturer's directions and IC50 values were obtained using a non-linear 4 point logistic curve fit (XLfit4, IDBS).

FLT3 = target: T3, FLT3 (Homo sapiens, UniProt P36888); assay: FLT3 inhibition, FRET based Z'-LYTE Kinase Assay; assay type: biochemical; conditions: 1 nM FLT3, 940 μM ATP; read-out: IC50 Range Flt3
T3 construct: purchased Invitrogen PV3182
T3 sequence (P36888 27-993): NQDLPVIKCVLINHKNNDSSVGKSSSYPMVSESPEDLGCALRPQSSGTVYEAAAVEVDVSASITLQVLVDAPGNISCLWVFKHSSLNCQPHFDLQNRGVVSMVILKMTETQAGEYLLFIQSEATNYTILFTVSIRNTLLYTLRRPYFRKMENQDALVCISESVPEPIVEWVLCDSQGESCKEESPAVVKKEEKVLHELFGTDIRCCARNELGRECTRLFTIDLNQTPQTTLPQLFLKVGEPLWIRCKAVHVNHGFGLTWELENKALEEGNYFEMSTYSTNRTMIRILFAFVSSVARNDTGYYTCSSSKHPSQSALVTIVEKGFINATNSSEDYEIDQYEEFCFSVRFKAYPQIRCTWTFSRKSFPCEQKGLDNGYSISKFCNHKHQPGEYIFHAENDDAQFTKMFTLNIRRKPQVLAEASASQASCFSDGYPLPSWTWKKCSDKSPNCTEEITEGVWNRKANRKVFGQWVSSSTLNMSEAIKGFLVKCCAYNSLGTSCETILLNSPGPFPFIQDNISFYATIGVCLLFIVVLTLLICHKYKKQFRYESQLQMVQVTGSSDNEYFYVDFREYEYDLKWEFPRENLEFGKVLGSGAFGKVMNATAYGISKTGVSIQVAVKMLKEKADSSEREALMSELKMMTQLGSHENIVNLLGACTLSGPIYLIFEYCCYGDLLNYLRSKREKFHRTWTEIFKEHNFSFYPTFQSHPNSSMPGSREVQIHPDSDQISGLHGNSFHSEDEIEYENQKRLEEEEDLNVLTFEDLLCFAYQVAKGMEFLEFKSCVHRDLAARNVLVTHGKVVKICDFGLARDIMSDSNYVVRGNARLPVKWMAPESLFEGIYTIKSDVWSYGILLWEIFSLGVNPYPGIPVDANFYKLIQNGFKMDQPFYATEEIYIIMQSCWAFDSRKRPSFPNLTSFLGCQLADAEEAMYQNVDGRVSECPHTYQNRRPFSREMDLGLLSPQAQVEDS
Protocol: as §1

[1] = test system: SLP-76 serine 376 phosphorylation in α-CD3 stimulated Jurkat E6.1 cells; assay: In vitro phosphorylation assay, SLP-76 Ser376 (immunoblot); assay type: cell-based; conditions: Homo sapiens, 4 h pretreatment, substantive = >75% inhibition as estimated by immunoblot analysis, read-out: SLP76 S376 Phosphorylation Onset-Substantive* Inhibition
Protocol: (§2) Jurkat E6.1 cells were obtained from American Type Culture Collection (ATCC, Manassas, Va.), and maintained according to the supplier's instructions. Cells were washed three times and starved in RPMI 1640 medium supplemented with 0.5% fetal calf serum for 18 h at 37° C. Serum starved cells were pretreated with the indicated concentration of inhibitor for 4 hours before stimulation with 10 μg/ml α-CD3 antibody (BioLegend, Inc., San Diego, Calif.) for 10 min at 37° C. The cells were washed once in phosphate-buffered saline (pH 7.4) containing 10 mm sodium pyrophosphate, 10 mm sodium fluoride, 10 mm EDTA, and 1 mm sodium orthovanadate. Protein lysates were prepared using ice-cold radioimmunoprecipitation assay (RIPA) lysis buffer. A total of 100 μg of cell lysate was loaded onto Bis-Tris gels (Life Technologies, Carlsbad, Calif.) with full-range molecular weight marker as a size reference, and resolved by SDS-PAGE electrophoresis. Proteins were transferred to PVDF membrane (Millipore, Billerica, Mass.), blocked and probed with antibodies for phospho-SLP-76 (Ser376) (rabbit polyclonal #13177; Cell Signaling Technology Inc., Danvers, Mass.), SLP-76 (rabbit polyclonal #4958; Cell Signaling Technology Inc., Danvers, Mass.), phospho-ERK (mouse monoclonal sc-7383; Santa Cruz Biotechnology Inc., Santa Cruz, Calif.) and ERK1/2 (rabbit polyclonal 06-182; Millipore, Billerica, Mass.). Secondary antibodies were diluted 1 in 15,000 and incubated for 1 h at rt. Protein bands were visualized and quantified using Odyssey near infrared imager (LI-COR, Lincoln, Nebr.).
(§3) Table 2 below lists effects of representative compounds of the present invention against SLP-76 serine 376 phosphorylation and ERK1/2 T202/Y204 phosphorylation in α-CD3 stimulated Jurkat E6.1 cells.

[2] = test system: ERK1/2 T202/Y204 phosphorylation in α-CD3 stimulated Jurkat E6.1 cells; assay: In vitro phosphorylation assay, ERK1/2 T202/Y204 (immunoblot); assay type: cell-based; conditions: Homo sapiens, 4 h pretreatment, read-out: ERK1/2 T202/Y204 Phosphorylation Onset Inhibition
Protocol: as §2, §3

T2 sequence (P06239 whole entry, species assumed): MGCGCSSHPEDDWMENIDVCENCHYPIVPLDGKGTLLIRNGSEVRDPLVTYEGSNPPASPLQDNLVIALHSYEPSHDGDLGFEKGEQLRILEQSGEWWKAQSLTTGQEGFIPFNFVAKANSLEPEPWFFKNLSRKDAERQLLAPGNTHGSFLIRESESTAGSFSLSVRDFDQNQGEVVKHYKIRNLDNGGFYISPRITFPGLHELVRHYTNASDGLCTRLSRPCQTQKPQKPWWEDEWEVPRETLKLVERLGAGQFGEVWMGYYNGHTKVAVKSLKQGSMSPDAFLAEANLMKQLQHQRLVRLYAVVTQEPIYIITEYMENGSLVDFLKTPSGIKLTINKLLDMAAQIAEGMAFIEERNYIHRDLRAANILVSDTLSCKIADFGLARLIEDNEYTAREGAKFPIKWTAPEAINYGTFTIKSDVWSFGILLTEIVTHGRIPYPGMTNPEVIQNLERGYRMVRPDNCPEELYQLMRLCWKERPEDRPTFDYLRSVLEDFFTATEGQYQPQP

IC50 (human HPK1 (MAP4K1)) | IC50 (LCK) | IC50 (FLT3) | SMILES | IC75 [1] | minimal effective concentration [2]
≤ 50 nM | 50 to 500 nM | ≤ 50 nM | CN1CCN(c2ccc3nc(-c4c(N[C@@H]5CCOC5)c5ccsc5[nH]c4=O)[nH]c3c2)CC1 [Example A10, (R)-5-(6-(4-methylpiperazin-1-yl)-1H-benzo[d]imidazol-2-yl)-4-((tetrahydrofuran-3-yl)amino)thieno[2,3-b]pyridin-6(7H)-one] | 1000 to 3000 nM | > 3 µM
≤ 50 nM | ≤ 50 nM | ≤ 50 nM | CN1CCN(c2ccc3nc(-c4c(NC5CCCC5)c5sccc5[nH]c4=O)[nH]c3c2)CC1 [Example A34, 7-(cyclopentylamino)-6-(6-(4-methylpiperazin-1-yl)-1H-benzo[d]imidazol-2-yl)thieno[3,2-b]pyridin-5(4H)-one] | 1000 to 3000 nM | 3 µM
≤ 50 nM | 50 to 500 nM | ≤ 50 nM | CN1CCN(c2ccc3nc(-c4c(N[C@H]5CCC[C@H]5O)c5ccsc5[nH]c4=O)[nH]c3c2)CC1 [Example A58, 4-(((1S,2R)-2-hydroxy-cyclopentyl)amino)-5-(6-(4-methylpiperazin-1-yl)-1H-benzo[d]imidazol-2-yl)-thieno[2,3-b]pyridin-6(7H)-one] | 100 to 300 nM | > 3 µM
